Data from US20250270159A1, “1-(CYCLOBUTANEMETHYLIDENE)-2, 4, 5-TRIMETHOXYBENZENE COMPOUND AND PREPARATION METHOD AND USE THEREOF” (CHENGDU XINRUI TAIKANG TECHNOLOGY CO., LTD., priority 2023, published 2025).

How the values were obtained:
[1] = system: GABA; experiment: GABA content in brain of TBI rats; format: in vivo, SD rats; details: 30 mg/kg ip, 7 d continuous administration, FIG. 4
Protocol: (§1) The experimental grouping and drug administration plan were as follows. • Sham operation group (Group P): saline was given with the same volume as in the CTMB group; • Model group (T group): a blank emulsion was given with the same volume as in the CTMB group; • Medium dose group (Group M): a dose of 30 mg/kg of CTMB emulsion injection was given.
(§2) The experimental grouping and drug administration plan were the same as the test 3. After 7 d of continuous administration to each group, the rats were deeply anesthetized, the heads were severed and the brains were removed, about 60-120 mg of hemispheric cortex on the blood side was taken out, 10 times volume of ice-cold centrifugation buffer used for biochemical assay was added, homogenized for 10 min under an ice bath, and then centrifuged for 30 min at 4° C. and 14000 rpm/min. The supernatants were taken to test the GLT-1 and GABA content according to the instructions of GLT-1 and GABA content assay kit, respectively. Glutamate transporter 1 (GLT-1) is an important glutamate transporter in the brain that transports extracellular glutamate to the intracellular compartment. γ-aminobutyric acid (GABA) is an important inhibitory neurotransmitter, and a dramatic increase in the concentration of extracellular glutamate in pathological conditions leads to neuronal hyperexcitability toxicity.

[2] = system: GLT-1; experiment: GLT-1 content in brain of TBI rats; format: in vivo, SD rats; details: 30 mg/kg ip, 7 d continuous administration, FIG. 4
Protocol: as §1, §2

[3] = system: reduced glutathione (GSH); experiment: GSH content in striatum of PD mice; format: in vivo, C57 mice; details: Group D, CTMB 20 mg/kg ip, after 4 weeks, injured side
Protocol: (§3) The mice were randomly divided into a sham operation group (group S, given a blank emulsion with a volume equal to that of the administered group), a model group (group M, given a blank emulsion with a volume equal to that of the administered group), a CTMB group (20 mg/kg, group D), and a levodopa group (levodopa: benserazide hydrochloride=4:1, 12 mg/kg, group L), each group included 10-12 mice, and all of them were administered intraperitoneally.
Malondialdehyde (MDA) is a commonly used indicator of membrane lipid peroxidation, reduced glutathione (GSH) is one of the most commonly used non-enzymatic indicators of antioxidant substances, and superoxide dismutase (SOD) is a common indicator of antioxidant enzymes. After completing the evaluation of motor function after 4 weeks of drug administration, the mice were deeply anesthetized and perfused with 20 mL of saline via the heart. The brain was rapidly severed to isolate the striatal region on the injured side (right side), weighed, and placed into a 1.5 mL EP tube, and homogenized at low temperature by adding phosphate-buffered saline (PBS) at the ratio of a weight of animal tissues (g) to a volume of homogenization medium (mL) of 1:9. […]

[4] = system: Parkinson's disease (PD) mice, 6-OHDA method; experiment: 6-OHDA Parkinson's disease mice, rod-climbing experiment; format: in vivo, C57 mice; details: Group D, CTMB 20 mg/kg ip
Protocol: as §3
Preoperatively, mice were fasted for 12 h, and mice were anesthetized with 4% isoflurane induction and maintained with 1.5% isoflurane. The mice were subsequently immobilized on a brain stereotaxic apparatus. The bregma and lambda points were exposed by gently wiping the cranial surface with a cotton swab after cutting the scalp. The stereotaxic apparatus was adjusted to align the heights of the bregma and lambda points, thereby leveling the skull. The bregma point was designated as the origin, the coordinates where the injection site was located were located, and the drill was used to drill a small hole in the skull above the injection site.
6-OHDA (12.5 μg/μL) was injected into the striatum region (AP+0.5 mm; ML+2.00 mm; DV-3.00 mm and-2.00 mm) of the mice, and 1 μL 6-OHDA was injected into each of the two points at a rate of 0.5 μL/min. The needle was left in place for 3 min after the injection was completed, and then the injection needle was lifted, and the scalp of the mice was sutured and disinfected. The sham operation group was injected with an equal volume of saline containing 0.02% ascorbic acid, and other operations were performed as above. After the procedure, the mice were placed in the cage at an appropriate temperature. After awakening from anesthesia, the mice were kept normally.
The rod-climbing experiment: the rod-climbing experiment was mainly used to test the limb movement ability of mice and to assess the symptoms of motor delay. This experiment evaluated the ability of mice to grasp and maneuver on a pole to descend to their home cage. A cork ball was fixed to an iron pole with a diameter of 1 cm and a length of 65 cm. The head of the mice was put down on the top of the pole, and the mice usually naturally descended down along the pole to return to their cage. The time for the mice to descend to the bottom was recorded. Results were averaged over 3 consecutive measurements.
The motor function of the mice was comprehensively assessed using the rod-climbing experiment and the hanging experiment at 1, 2, 3, and 4 weeks after drug administration.

[5] = system: neurons in the substantia nigra region of the midbrain of PD mice; experiment: Niehl's staining, number of neuronal Niehl's bodies in substantia nigra of PD mice; format: in vivo, C57 mice; details: Group D, CTMB 20 mg/kg ip, after 4 weeks of administration
Protocol: as §3
After completing the evaluation of motor function after 4 weeks of drug administration, the mice were deeply anesthetized, perfused with 20 mL of saline and 20 mL of 4% paraformaldehyde via the heart, and the brains were rapidly severed and extracted from the head, which were then preserved and fixed in 4% paraformaldehyde for 72 h after removal, and then embedded with paraffin to prepare the slices with a thickness of 4 μm for subsequent pathological and histological studies.
Niehl's staining was used to identify Niehl's bodies in neuronal cells.

[6] = system: TNF-α; experiment: TNF-α in cerebral cortex of TBI rats; format: in vivo, SD rats; details: 30 mg/kg ip 2 h after TBI; 24 h after administration; FIG. 3
Protocol: as §1
(§4) The experimental grouping and drug administration plan were the same as the test 3. After 2 h of the TBI modeling, different groups of rats were administered intraperitoneally. After 24 h of the administration, the rats were deeply anesthetized, the head was severed and the brain was removed, about 60-120 mg of hemisphere cortex was taken out from the hemisphere on the blood side, 10 times the volume of ice-cold centrifugal buffer used for biochemical assays was added, homogenization was carried out in an ice bath for 10 min, and centrifugation was carried out at 4° C. and 14000 rpm/min for 30 min. The supernatant was extracted, and inflammatory factors IL-1, IL-6, and TNF-α were tested according to the instructions of IL-1, IL-6, and TNF-α assay kits, respectively.

[7] = system: IL-1; experiment: IL-1 in cerebral cortex of TBI rats; format: in vivo, SD rats; details: 30 mg/kg ip 2 h after TBI; 24 h after administration; FIG. 3
Protocol: as §1, §4

COc1cc(OC)c(OC)cc1C=C1CCC1 [CTMB, 1-(cyclobutylidenemethyl)-2,4,5-trimethoxybenzene]
GABA content in brain [1]: increases the content of GABA | GLT-1 content in brain [2]: reduces the GLT-1 content | ratio of GLT-1 and GABA [2]: significantly reduces the ratio of GLT-1 and GABA | GSH [3]: 46.38 ± 6.94 μmol/g protein | Rod-climbing time, 1 week of administration [4]: 6.38 ± 1.22 s | Rod-climbing time, 2 weeks of administration [4]: 6.41 ± 1.12 s | Rod-climbing time, 3 weeks of administration [4]: 5.50 ± 1.02^#, * s | Rod-climbing time, 4 weeks of administration [4]: 5.28 ± 0.92^#, * s | Rod-climbing time, Before administration ([4]; baseline 2 weeks after 6-OHDA): 9.29 ± 1.92 s | Number of Niehl's bodies [5]: 55.5 ± 4.0 | content of TNF-α in cerebral cortex tissue [6]: significantly reduced | content of IL-1 in cerebral cortex tissue [7]: significantly reduced
